From publication PMC3890260 (Chemical science (Royal Society of Chemistry : 2010), 2013)

How the values were obtained:
[1] = molecular target: T1, V. cholerae CqsS receptor (Vibrio cholerae serotype O1, UniProt Q9KM66); test: CqsS agonist bioassay; type: cell-based
[2] = molecular target: T1, V. cholerae CqsS receptor; settings: cited from earlier work

T1 sequence (Q9KM66 whole entry, looked up): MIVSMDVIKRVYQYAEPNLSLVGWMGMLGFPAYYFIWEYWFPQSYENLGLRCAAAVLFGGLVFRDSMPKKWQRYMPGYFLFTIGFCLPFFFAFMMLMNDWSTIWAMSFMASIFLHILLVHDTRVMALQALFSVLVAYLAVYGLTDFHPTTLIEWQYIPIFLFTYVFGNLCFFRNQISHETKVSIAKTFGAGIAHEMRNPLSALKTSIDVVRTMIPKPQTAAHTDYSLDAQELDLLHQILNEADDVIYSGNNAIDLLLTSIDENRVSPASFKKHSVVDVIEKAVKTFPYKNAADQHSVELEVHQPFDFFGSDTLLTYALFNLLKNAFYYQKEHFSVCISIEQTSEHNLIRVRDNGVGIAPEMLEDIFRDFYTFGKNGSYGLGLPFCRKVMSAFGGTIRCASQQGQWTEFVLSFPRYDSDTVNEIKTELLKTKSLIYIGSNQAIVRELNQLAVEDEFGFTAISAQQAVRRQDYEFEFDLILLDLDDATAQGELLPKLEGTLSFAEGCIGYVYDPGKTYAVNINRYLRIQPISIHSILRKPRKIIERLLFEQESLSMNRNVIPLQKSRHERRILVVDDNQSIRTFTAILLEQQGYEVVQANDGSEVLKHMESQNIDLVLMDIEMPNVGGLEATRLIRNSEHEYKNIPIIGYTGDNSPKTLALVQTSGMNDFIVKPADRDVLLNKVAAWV

Question: Which EC50 ([1]; CqsS agonist bioassay, mean of triplicate analyses) does the source give for C/C=C(\N)C(=O)CCCCCCCCC [Ea-CAI-1] here?
Answer: Its EC50 is 4.1 nM.

Question: And the “% Response (percent maximal bioluminescence with respect to Ea-CAI-1)” value ([1]; Ea-CAI-1 set at 100%)?
Answer: The value was 100%.

Question: What about the “potency as CqsS agonist compared to CAI-1” value [2] of the same molecule?
Answer: The value was “an order of magnitude more potent”.
